Experimental data from US20250228832A1, “METHODS FOR TREATING DISORDERS AMELIORATED BY MUSCARINIC RECEPTOR ACTIVATION” (KARUNA THERAPEUTICS, INC., priority 2022, published 2025).
Where two headings read alike, the source gives them in different places.

Assays:
[1] = biological target: T1, human M5 receptor (Homo sapiens, UniProt P08912); assay: HTRF IP-One curve shift assay, M5; format: cell-based; conditions: M5
T1 construct: expressed in transfected cells
T1 sequence (P08912 1-532): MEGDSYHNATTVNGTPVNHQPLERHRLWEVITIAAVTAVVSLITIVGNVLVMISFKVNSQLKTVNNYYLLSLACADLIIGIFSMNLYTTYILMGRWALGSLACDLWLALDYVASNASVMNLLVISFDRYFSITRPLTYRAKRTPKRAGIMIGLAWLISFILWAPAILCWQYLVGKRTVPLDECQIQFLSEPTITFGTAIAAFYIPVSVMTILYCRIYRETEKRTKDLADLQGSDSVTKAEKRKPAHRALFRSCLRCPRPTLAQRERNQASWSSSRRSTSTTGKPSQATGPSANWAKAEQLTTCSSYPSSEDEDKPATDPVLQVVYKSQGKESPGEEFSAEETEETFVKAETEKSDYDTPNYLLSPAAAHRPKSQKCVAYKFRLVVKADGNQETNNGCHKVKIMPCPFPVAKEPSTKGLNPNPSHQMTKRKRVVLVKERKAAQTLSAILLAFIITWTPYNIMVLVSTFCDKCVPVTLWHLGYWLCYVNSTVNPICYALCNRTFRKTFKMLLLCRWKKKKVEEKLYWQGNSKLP
Protocol: HTRF IP-One assays were performed using frozen cell aliquots prepared from CHO-K1 cell lines stably expressing human M1, M3, or M5 receptors. Cells were frozen following typical cell freezing protocols. […] Dissociated cells were quenched in full media and collected by centrifugation at 290×g for 5 min. […] 1 mL aliquots of cells were dispensed into cryovial tubes and frozen in a controlled rate cryo-freezer container at −80° C. Cells were stored at −80° C. (or in liquid nitrogen if stored for at least six months) until the day of the assay.
On the day before the assay, frozen cells were rapidly thawed in a 37° C. water bath, brought up in 20 mL of full media, and collected via centrifugation at 290×g for 5 min. […] Next, […] of cells (10,000 cells/well) were dispensed into 384-well coming plates in triplicate. Cells were incubated overnight in a 37° C., 5% CO2 cell incubator.
Then, 2 μL of test compounds were added to the cells and incubated for 10 min at 37° C. in a 5% CO2 cell incubator. Next, 2 μL of diluted agonists serially diluted in assay buffer at 7× final assay concentration was added to assay plates. Finally, assay plates were incubated for two hours at 37° C. in a 5% CO2 cell incubator.
Six μL of IP-1 detection reagents (IP-One Gq HTRF kit, Cisbio Cat #62IPAPEJ) were dispensed to the cells. First, the plates were incubated for two hours at room temperature (IP-One detection reagents were made according to Cisbio protocol). Then, plates were read on an Envision plate reader following the Cisbio guidelines.
(§1) Raw data for all assays was transmitted directly from plate readers into the Beacon database for processing. All assay plates contained positive and negative control wells for data normalization and scaling. […] All control wells contained DMSO at a final assay concentration that matched the test compound wells.
Counts from the standard curve wells were used to generate a sigmoidal standard curve, which was used to transform the raw counts from each well on the plate (scaling control wells and compound wells) into a pmol/well IP1 value.

[2] = biological target: T2, human M4 receptor (Homo sapiens, UniProt P08173); assay: SPA GTP (GTPgS) binding curve shift assay, M4; format: biochemical
T2 construct: expressed in transfected cells
T2 sequence (P08173 1-479): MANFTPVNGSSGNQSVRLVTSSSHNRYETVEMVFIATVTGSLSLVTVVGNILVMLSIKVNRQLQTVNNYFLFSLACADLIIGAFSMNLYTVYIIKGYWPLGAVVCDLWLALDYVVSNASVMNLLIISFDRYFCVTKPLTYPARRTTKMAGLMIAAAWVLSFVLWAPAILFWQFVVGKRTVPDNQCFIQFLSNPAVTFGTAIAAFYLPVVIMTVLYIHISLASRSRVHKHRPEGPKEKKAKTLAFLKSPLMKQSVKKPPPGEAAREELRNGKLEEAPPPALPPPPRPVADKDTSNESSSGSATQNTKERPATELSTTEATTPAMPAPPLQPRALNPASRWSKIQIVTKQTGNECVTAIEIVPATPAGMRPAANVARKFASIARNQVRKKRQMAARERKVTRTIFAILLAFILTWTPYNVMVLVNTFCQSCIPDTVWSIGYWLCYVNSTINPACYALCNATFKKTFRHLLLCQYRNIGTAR
Protocol: Membranes were prepared for GTPgS binding assays from CHO-K1 cells stably expressing human M2 or human M4 receptors. Cells were grown in 5-layer cell culture flasks. Cells were washed with 50 mL of PBS and then dissociated with 0.05% trypsin. Dissociated cells were then collected by centrifugation at 650×g for 8 min at 4° C. Pellets were rewashed in PBS by centrifugation and resuspended in 30 mL of 20 mM HEPES, 10 mM EDTA, pH 7.4. After sitting on ice for 30 min, membranes were collected by centrifugation at 50000×g for 15 min at 4° C., resuspended in 30 mL of 20 mM HEPES, 0.1 mM EDTA, pH 7.4, and collected again by centrifugation. Pellets were then washed twice by centrifugation in 30 mL of 20 mM HEPES, pH 7.4, and stored at −80° C. until the day of the assay. On the day of the assay, pellets were thawed on ice and resuspended in 1 mL of 20 mM HEPES, pH 7.4, 10 mM MgCl2, and 100 mM NaCl using Dounce homogenization.
According to Promega guidelines, membrane protein concentration was determined by BCA protein assay (Promega, Madison, WI).
On the day of the assay, serial dilutions of test PAM compounds were brought up in assay buffer (20 mM HEPES, 10 mM MgCl2; see Table 4 for NaCl concentrations) at four times the final assay concentration. […] of membrane homogenates (containing […] of membrane protein) were prepared in assay buffer supplemented with GDP at 4× final assay concentration (see Table 4 for GDP concentrations) and dispensed into 96 well polypropylene, U-bottom Greiner plates. Membrane plates were incubated for 10 min at room temperature with gentle shaking. Then, 25 μL of test compounds were added to assay plates. Plates were then incubated, with shaking, for an additional 10-15 min. Then, 25 μL of diluted agonists serially diluted in assay buffer at 4× final assay concentration was added to assay plates. Plates were then incubated, with shaking, for an additional 10-15 min. Next, […] of 0.4 nM ^35S-GTP (Perkin Elmer, Waltham, MA) in assay buffer was added to assay mixtures. The binding reaction was left on the shaker for 1 h at room temperature. Membranes in assay reactions were then transferred to GF/C filter plates (UniFilter, Perkin Elmer) and washed three times using FilterMate Harvester (Perkin Elmer) with cold assay buffer containing no GDP. Filter plates were then dried at 40° C. overnight, and […] of Beta Plate Scintillation liquid was added. Plates were top and bottom sealed before being read on the TopCount scintillation counter (Perkin Elmer, Waltham, MA).
as §1
For GTPgS assays, the negative control wells were defined as 0% response. The highest response in a plate was scaled to 1, representing 100% response. Data from test compound wells was scaled to these controls and are reported as % control values. This was done to allow for subsequent GraphPad cooperativity analysis, setting the maximal response at no more than 1.

## CC(=O)OCC[N+](C)(C)C [acetylcholine, reference compound]
[1]; Emraclidine concentration 41.2 nM, read-out: Emax
  Emax: 77.7%
[1]; Emraclidine concentration […], read-out: Emax
  Emax at […]: 72.3%
[1]; MK-4710 concentration 0 nM
  Emax: 71.2%
[1]; MK-4710 concentration 1110 nM, read-out: Emax
  Emax: 78.1%
[1]; MK-4710 concentration 3330 nM, read-out: Emax
  Emax: 78.8%
[1]; MK-4710 concentration […], read-out: Emax
  Emax at […]: 77.7%
[2]; MK-4710 concentration 0 nM
  Emax: 67.6%
[2]; MK-4710 concentration […]
  Emax at […]: 76.8%
